Experimental data published in the supplement of paper PMC10307832.

How the values were obtained:
Test in all cases: relative viability (nuclei count vs DMSO), 5 days (fraction); higher = more cells survive
[1] = compound: COc1cc2ncn(-c3cc(OCc4ccccc4C(F)(F)F)c(C(N)=O)s3)c2cc1OC + Nc1ncn([C@H]2C[C@H](O)[C@@H](CO)O2)c(=O)n1 [Decitabine] (partner 2 µM)
Procedure, shortened: (§1)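 Cells from lung cancer lines were seeded into 1536-well plates and, one day later, dosed by pin tool. Treatments were either a single drug or a fixed dose of an anchor drug with five library-drug doses (not always all listed) in √10 steps. After 5 days, nuclei were stained in a one-step fixation (final 0.05% Triton X-100, 1% formaldehyde, 1 ug/ml Hoechst) and counted on 4× images, and relative viability is the treated-to-vehicle nuclei ratio, as the median of duplicate plates.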

[2] = compound: COc1cc2ncn(-c3cc(OCc4ccccc4C(F)(F)F)c(C(N)=O)s3)c2cc1OC + C[C@]1(O)C[C@@H](c2nc(-c3ccc4ccc(-c5ccccc5)nc4c3)c3c(N)nccn32)C1 [Linsitinib] (partner 1 µM)
Procedure, shortened: as §1

[3] = compound: COc1cc2ncn(-c3cc(OCc4ccccc4C(F)(F)F)c(C(N)=O)s3)c2cc1OC + Cc1nc(NC(=O)N2CCC[C@H]2C(N)=O)sc1-c1ccnc(C(C)(C)C(F)(F)F)c1 [Alpelisib] (partner 2 µM)
Procedure, shortened: as §1

[4] = compound: COc1cc2ncn(-c3cc(OCc4ccccc4C(F)(F)F)c(C(N)=O)s3)c2cc1OC + CS(=O)(=O)N1CCN(Cc2cc3nc(-c4cccc5[nH]ncc45)nc(N4CCOCC4)c3s2)CC1 [Pictilisib] (partner 1 µM)
Procedure, shortened: as §1

Cell Line	relative viability ([1]; first compound 0.05 µM)	relative viability ([1]; first compound 0.5 µM)	relative viability ([1]; first compound 1.581 µM)	relative viability ([1]; first compound 5 µM)	relative viability ([2]; first compound 0.05 µM)	relative viability ([2]; first compound 0.1581 µM)	relative viability ([2]; first compound 0.5 µM)	relative viability ([2]; first compound 1.581 µM)	relative viability ([2]; first compound 5 µM)	relative viability ([3]; first compound 0.05 µM)	relative viability ([3]; first compound 0.1581 µM)	relative viability ([3]; first compound 0.5 µM)	relative viability ([3]; first compound 1.581 µM)	relative viability ([3]; first compound 5 µM)	relative viability ([4]; first compound 0.05 µM)	relative viability ([4]; first compound 0.1581 µM)	relative viability ([4]; first compound 0.5 µM)	relative viability ([4]; first compound 1.581 µM)	relative viability ([4]; first compound 5 µM)	relative viability ([1]; first compound 0.1581 µM)
HARA	0.383	0.367	0.202	0.118	0.958	0.842	0.834	0.208	0.0806	0.894	0.764	0.712	0.176	0.0641	0.443	0.38	0.274	0.0824	0.0556	–
NCI-H2126	0.571	0.556	0.261	0.227	0.721	0.772	0.587	0.292	0.264	0.731	0.803	0.668	0.293	0.234	0.462	0.517	0.477	0.254	0.229	0.605
LXF-289	0.434	0.274	0.129	0.108	0.884	0.762	0.158	0.0992	0.0585	0.994	0.801	0.138	0.0881	0.0604	0.789	0.752	0.447	0.0857	0.0529	0.363
NCI-H460	0.495	0.257	0.0216	0.0165	0.836	0.832	0.0599	0.0112	0.0063	0.51	0.537	0.0496	0.0115	0.0095	0.401	0.206	0.323	0.0526	0.183	0.15
NCI-H1395	0.736	0.596	0.373	0.342	0.967	1	0.593	0.395	0.388	1.04	1.11	0.726	0.342	0.375	0.609	0.686	0.461	0.635	0.438	0.753
NCI-H2009	0.344	0.259	0.197	0.17	1.19	1.11	0.918	0.208	0.22	1.07	1.05	0.667	0.169	0.154	0.783	0.417	0.325	0.166	0.152	0.301
